Laboratory results reported in the NIST ThermoML archive (doi:10.1016/j.jct.2008.12.011).

Assays:
[1] = mn = molality of the nth substance listed, in mol/kg; details: 101 kPa, Liquid, Vibrating tube method
[2] = cn = amount concentration of the nth substance listed, in mol/dm3; details: 101.3 kPa, Liquid, Vibrating tube method

O=S(=O)(O)CC(O)CNC(CO)(CO)CO (stereo not drawn) + O
mass density [kg/m3], [1]
Details	298.15 K	303.15 K	310.15 K	318.15 K	323.15 K	328.15 K
m1 = 0.0629	1003.59	1002.16	999.78	996.62	994.41	992.05
m1 = 0.123	1009.62	1008.14	1005.72	1002.52	1000.3	997.92
m1 = 0.1921	1016.37	1014.86	1012.39	1009.15	1006.89	1004.5
m1 = 0.4659	1041.93	1040.26	1037.6	1034.18	1031.71	1028.8
m1 = 0.7644	1069.04	1066.83	1063.04	1059.95	1056.86	1054.93

CC(=O)[O-].[K+] [potassium ethanoate] + O
mass density [kg/m3], [2]
Details	c1 = 1	c1 = 1.5	c1 = 2	c1 = 2.5	c1 = 3	c1 = 3.5	c1 = 4
298.15 K	–	1066.61	–	1108.88	1127.48	1148.72	–
303.15 K	1041.9	1064.76	1086.01	1106.89	1125.37	1146.49	1168.58
308.15 K	1039.27	1062.94	1083.09	1103.93	1122.15	1143.14	1165.13
313.15 K	1035.88	1059.39	1079.44	1100.19	1118.3	1139.19	1160.96
318.15 K	1033.57	1057.02	1077.01	1097.66	1115.71	1136.58	1158.26
323.15 K	1030.82	1054.37	1074.47	1095.05	1113.05	1133.87	1155.47

[Br-].[K+] [potassium bromide] + O
mass density [kg/m3], [2]
Details	c1 = 1	c1 = 1.5	c1 = 2	c1 = 2.5	c1 = 3	c1 = 3.5	c1 = 4
298.15 K	–	1119.52	–	1199.54	1239.34	1279.04	–
303.15 K	1078.68	1117.57	1160.04	1197.23	1236.89	1276.29	1320.56
308.15 K	1075.81	1114.62	1156.73	1193.88	1233.52	1272.28	1316.47
313.15 K	1072.09	1110.71	1152.65	1189.67	1229.2	1267.53	1311.63
318.15 K	1066.6	1106.96	1149.76	1186.74	1226.19	1264.46	1308.52
323.15 K	1063.02	1102.44	1144.45	1182.53	1222.18	1260.51	1305.31
